Assays:
[1] = tested on: HAP1 MTAP-intact; assay: SDMA in-cell western assay, HAP1 MTAP-intact cell line; assay type: cell-based; conditions: Homo sapiens
How it was run: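 IC50 values come from SDMA in-cell western staining of HAP1 cells. The MTAP-intact line carries endogenous MTAP, while its MTAP-deleted counterpart lacks MTAP entirely. A selectivity ratio of at least 3 fold marks a compound as MTAP-selective.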

[2] = tested on: HAP1 MTAP-deleted; assay: SDMA in-cell western assay, HAP1 MTAP-deleted cell line; assay type: cell-based; conditions: for IC50: Homo sapiens, HAP1 MTAP-deleted cell line; for MTAP Intact/Deleted Ratio: IC50 ratio HAP1 MTAP-intact / HAP1 MTAP-deleted
How it was run: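 Readout is cellular SDMA signal by in-cell western, with IC50 values derived from it. The cells are MTAP-null HAP1, matched to an isogenic MTAP-intact HAP1 line.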

[3] = target: T1, PRMT5 (Homo sapiens, UniProt O14744); assay: PRMT5 IC50 assay with no cofactor; assay type: biochemical
T1 construct: purchased Viva (custom protein)
How it was run: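 Enzyme: human PRMT5. Conditions: plus SAM, plus MTA, or cofactor-free. Output: IC50 (μM); Ki via IC50/1.5 (SAM) or IC50/13.5 (MTA).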

[4] = target: T1, PRMT5; assay: PRMT5 IC50 assay in the presence of SAM as cofactor; assay type: biochemical
How it was run: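 Results given as IC50 (μM), from which Ki follows by dividing by 1.5 in the SAM condition or by 13.5 in the MTA condition. The ratio of SAM Ki to MTA Ki indicates MTA-cooperative preference.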

[5] = target: T1, PRMT5; assay: PRMT5 IC50 assay in the presence of MTA as cofactor; assay type: biochemical; conditions: for IC50: PRMT5, MTA as cofactor; for SAM/MTA Ratio: ratio between the Ki in the presence of SAM and the Ki in the presence of MTA
How it was run: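 IC50 values were measured against human PRMT5 with SAM, with MTA, or with no cofactor. Ki was derived from IC50 as Ki=IC50/1.5 with SAM and Ki=IC50/13.5 with MTA, and the Ki(SAM)/Ki(MTA) ratio was then taken.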

T1 sequence (O14744 whole entry): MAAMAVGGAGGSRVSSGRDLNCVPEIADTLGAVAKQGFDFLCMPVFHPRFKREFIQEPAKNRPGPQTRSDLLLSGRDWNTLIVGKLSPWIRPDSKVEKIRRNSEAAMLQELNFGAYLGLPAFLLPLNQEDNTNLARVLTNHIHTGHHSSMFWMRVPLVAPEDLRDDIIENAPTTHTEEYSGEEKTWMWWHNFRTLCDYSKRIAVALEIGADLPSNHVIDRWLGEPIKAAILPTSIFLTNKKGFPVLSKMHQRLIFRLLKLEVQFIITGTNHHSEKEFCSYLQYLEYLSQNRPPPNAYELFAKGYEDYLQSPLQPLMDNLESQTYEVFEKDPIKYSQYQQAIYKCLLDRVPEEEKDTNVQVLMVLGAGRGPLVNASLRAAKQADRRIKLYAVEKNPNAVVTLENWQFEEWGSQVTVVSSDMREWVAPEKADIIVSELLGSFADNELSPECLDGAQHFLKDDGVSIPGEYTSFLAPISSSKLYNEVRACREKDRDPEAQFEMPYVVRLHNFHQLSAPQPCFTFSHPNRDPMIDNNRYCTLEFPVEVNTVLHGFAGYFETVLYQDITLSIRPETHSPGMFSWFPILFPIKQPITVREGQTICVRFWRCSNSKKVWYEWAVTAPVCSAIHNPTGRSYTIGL
T1 sequence (Q9BQA1 whole entry partner): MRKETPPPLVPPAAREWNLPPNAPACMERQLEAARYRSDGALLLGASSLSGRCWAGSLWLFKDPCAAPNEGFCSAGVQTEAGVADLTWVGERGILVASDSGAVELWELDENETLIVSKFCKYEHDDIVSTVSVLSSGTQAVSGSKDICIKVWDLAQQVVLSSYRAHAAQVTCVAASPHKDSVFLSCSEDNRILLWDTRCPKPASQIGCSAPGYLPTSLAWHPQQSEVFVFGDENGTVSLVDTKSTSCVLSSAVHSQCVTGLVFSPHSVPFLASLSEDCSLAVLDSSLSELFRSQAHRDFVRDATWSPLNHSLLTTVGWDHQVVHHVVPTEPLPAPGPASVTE

Compound	IC50 [1] [nM]	IC50 [2] [nM]	IC50 [3] [nM]	IC50 [4] [nM]	IC50 [5] [nM]	MTAP Intact/Deleted Ratio [2]	SAM/MTA Ratio [5]
Cc1c(OCc2cnco2)ccc2c1CCN(C[C@@H](O)CNC(=O)c1ccnc(NC3CC4CCCC43)c1)C2 (stereo partly drawn) [Compound 486, 2-(bicyclo[3.2.0]heptan-6-ylamino)-N—((S)-2-hydroxy-3-(5-methyl-6-(oxazol-5-ylmethoxy)-3,4-dihydroisoquinolin-2(1H)-yl)propyl)isonicotinamide]	≥ 10000	1000 to 10000	≥ 5000	50 to 500	50 to 500	C* (an IC50 ratio of less than 3 fold between the IC50 in the HAP1 MTAP-intact cell line and the HAP1 MTAP-deleted cell line)	A (a Ki ratio greater than or equal to 10 fold between the Ki in the presence of SAM and the Ki in the presence of MTA)
Cc1c(OCc2cnco2)ccc2c1CCN(C[C@@H](O)CNC(=O)c1ccnc(N[C@H]3C[C@@H](CO)C3)c1)C2 [Compound 487]	≥ 10000	≥ 10000	≥ 5000	50 to 500	50 to 500	C* (an IC50 ratio of less than 3 fold between the IC50 in the HAP1 MTAP-intact cell line and the HAP1 MTAP-deleted cell line)	A (a Ki ratio greater than or equal to 10 fold between the Ki in the presence of SAM and the Ki in the presence of MTA)
Cc1ncoc1COc1ccc2c(c1C)CCN(C[C@@H](O)CNC(=O)c1cccc(NC3CCC3)c1)C2 [Compound 488, 3-(cyclobutylamino)-N-[(2S)-2-hydroxy-3-{5-methyl-6-[(4-methyl-1,3-oxazol-5-yl)methoxy]-1,2,3,4-tetrahydroisoquinolin-2-yl}propyl]benzamide]	≥ 10000	1000 to 10000	≥ 5000	500 to 5000	50 to 500	C* (an IC50 ratio of less than 3 fold between the IC50 in the HAP1 MTAP-intact cell line and the HAP1 MTAP-deleted cell line)	A (a Ki ratio greater than or equal to 10 fold between the Ki in the presence of SAM and the Ki in the presence of MTA)
CCN(C)c1cc(C(=O)NC[C@H](O)CN2CCc3cc(OCc4ocnc4C)ccc3C2)cc(NC2CCC2)n1 [Compound 489, 2-(cyclobutylamino)-6-[ethyl(methyl)amino]-N-[(2S)-2-hydroxy-3-{6-[(4-methyl-1,3-oxazol-5-yl)methoxy]-1,2,3,4-tetrahydroisoquinolin-2-yl}propyl]pyridine-4-carboxamide]	≥ 10000	1000 to 10000	≥ 5000	500 to 5000	50 to 500	B* (an IC50 ratio greater than or equal to 3 fold but lower than 10 fold between the IC50 in the HAP1 MTAP-intact cell line and the HAP1 MTAP-deleted cell line)	A (a Ki ratio greater than or equal to 10 fold between the Ki in the presence of SAM and the Ki in the presence of MTA)
Cc1ncoc1COc1ccc2c(c1Cl)CCN(C[C@@H](O)CNC(=O)c1cccc(NC3COC3)c1)C2 [Compound 490, N-[(2S)-3-[5-chloro-6-[(4-methyl-1,3-oxazol-5-yl)methoxy]-1,2,3,4-tetrahydroisoquinolin-2-yl}-2-hydroxypropyl]-3-[(oxetan-3-yl)amino]benzamide]	≥ 10000	≥ 10000	≥ 5000	500 to 5000	500 to 5000	C* (an IC50 ratio of less than 3 fold between the IC50 in the HAP1 MTAP-intact cell line and the HAP1 MTAP-deleted cell line)	A (a Ki ratio greater than or equal to 10 fold between the Ki in the presence of SAM and the Ki in the presence of MTA)
CC(=O)N1CCC(Nc2cc(C(=O)NC[C@H](O)CN3CCc4nc(OCc5ocnc5C)ccc4C3)ncn2)CC1 [Compound 491, 6-[(1-acetyl-4-piperidyl)amino]-N-[(2S)-2-hydroxy-3-[2-[(4-methyloxazol-5-yl)methoxy]-7,8-dihydro-5H-1,6-naphthyridin-6-yl]propyl]pyrimidine-4-carboxamide]	≥ 10000	1000 to 10000	≥ 5000	50 to 500	50 to 500	C* (an IC50 ratio of less than 3 fold between the IC50 in the HAP1 MTAP-intact cell line and the HAP1 MTAP-deleted cell line)	A (a Ki ratio greater than or equal to 10 fold between the Ki in the presence of SAM and the Ki in the presence of MTA)
Cc1ncoc1COc1ccc2c(c1)CCN(C[C@@H](O)CNC(=O)c1cc(NC3COC3)nc(N3CCN(C(C)C)CC3)n1)C2 [Compound 492, N-[(2S)-2-hydroxy-3-{6-[(4-methyl-1,3-oxazol-5-yl)methoxy]-1,2,3,4-tetrahydroisoquinolin-2-yl}propyl]-6-[(oxetan-3-yl)amino]-2-[4-(propan-2-yl)piperazin-1-yl]pyrimidine-4-carboxamide]	1000 to 10000	1000 to 10000	≥ 5000	50 to 500	50 to 500	C* (an IC50 ratio of less than 3 fold between the IC50 in the HAP1 MTAP-intact cell line and the HAP1 MTAP-deleted cell line)	A (a Ki ratio greater than or equal to 10 fold between the Ki in the presence of SAM and the Ki in the presence of MTA)
Cc1ncoc1COc1ccc2c(c1)CCN(C[C@@H](O)CNC(=O)c1ccc3c(c1)CCN(C(=O)c1ccc(Br)cc1)C3)C2 [Compound 493]	1000 to 10000	< 1000	500 to 5000	50 to 500	< 50	B* (an IC50 ratio greater than or equal to 3 fold but lower than 10 fold between the IC50 in the HAP1 MTAP-intact cell line and the HAP1 MTAP-deleted cell line)	A (a Ki ratio greater than or equal to 10 fold between the Ki in the presence of SAM and the Ki in the presence of MTA)

Now from value to molecule, other results behind:

IC50 [1] [nM]	IC50 [2] [nM]	IC50 [3] [nM]	IC50 [4] [nM]	IC50 [5] [nM]	Compound	MTAP Intact/Deleted Ratio [2]	SAM/MTA Ratio [5]
≥ 10000	1000 to 10000	500 to 5000	50 to 500	50 to 500	Cc1c(OCc2cnco2)ccc2c1CCN(C[C@@H](O)CNC(=O)c1ccnc(NC3CCN(C(=O)C4CCC4)CC3)c1)C2 [Compound 494, (S)-2-((1-(cyclobutanecarbonyl)piperidin-4-yl)amino)-N-(2-hydroxy-3-(5-methyl-6-(oxazol-5-ylmethoxy)-3N-dihydroisoquinolin-2(1H)-yl)propyl)isonicotinamide]	B* (an IC50 ratio greater than or equal to 3 fold but lower than 10 fold between the IC50 in the HAP1 MTAP-intact cell line and the HAP1 MTAP-deleted cell line)	A (a Ki ratio greater than or equal to 10 fold between the Ki in the presence of SAM and the Ki in the presence of MTA)
≥ 10000	≥ 10000	500 to 5000	50 to 500	50 to 500	CCC(=O)N1CC(Nc2cc(C(=O)NC[C@H](O)CN3CCc4c(ccc(OCc5cnco5)c4C)C3)ccn2)C1 [Compound 495, (S)—N-(2-hydroxy-3-(5-methyl-6-(oxazol-5-ylmethoxy)-3,4-dihydroisoquinolin-2(1H)-yl)propyl)-2-((1-propionylazetidin-3-yl)amino)isonicotinamide]	C* (an IC50 ratio of less than 3 fold between the IC50 in the HAP1 MTAP-intact cell line and the HAP1 MTAP-deleted cell line)	A (a Ki ratio greater than or equal to 10 fold between the Ki in the presence of SAM and the Ki in the presence of MTA)
≥ 10000	1000 to 10000	500 to 5000	50 to 500	50 to 500	CCC(=O)N1CCC(Nc2cc(C(=O)NC[C@H](O)CN3CCc4c(ccc(OCc5cnco5)c4C)C3)ccn2)CC1 [Compound 496, (S)—N-(2-hydroxy-3-(5-methyl-6-(oxazol-5-ylmethoxy)-3N-dihydroisoquinolin-2(1H)-yl)propyl)-2-((1-propionylpiperidin-4-yl)amino)isonicotinamide]	B* (an IC50 ratio greater than or equal to 3 fold but lower than 10 fold between the IC50 in the HAP1 MTAP-intact cell line and the HAP1 MTAP-deleted cell line)	A (a Ki ratio greater than or equal to 10 fold between the Ki in the presence of SAM and the Ki in the presence of MTA)
1000 to 10000	< 1000	500 to 5000	50 to 500	50 to 500	CC(=O)N1CCN(c2cc(C(=O)NC[C@H](O)CN3CCc4cc(OCc5cnco5)ccc4C3)cc(NC3CCC3)n2)CC1 [Compound 497, (S)-2-(4-acetylpiperazin-1-yl)-6-(cyclobutylamino)-N-(2-hydroxy-3-(6-(oxazol-5-ylmethoxy)-3N-dihydroisoquinolin-2(1H)-yl)propyl)isonicotinamide]	C* (an IC50 ratio of less than 3 fold between the IC50 in the HAP1 MTAP-intact cell line and the HAP1 MTAP-deleted cell line)	A (a Ki ratio greater than or equal to 10 fold between the Ki in the presence of SAM and the Ki in the presence of MTA)

Reference: patent US11986471B2, “Compounds and methods of use” (Tango Therapeutics, Inc., priority 2018, dated 2024)
